Assay results as given in patent US20110104780A1, “ENCAPSULATION OF LIVING CELLS WITHIN AN AEROSOLIZED SOL-GEL MATRIX” (PURDUE RESEARCH FOUNDATION, priority 2008, published 2011).

Tested on: cells coated with sol-gel vapor
Experiment: Proton efflux at the cellular surface, self referencing electrode
Assay type: cell-based
Conditions: 48 hours after coating cells with sol-gel vapor
Description: Data relating to oxygen influx and proton efflux were collected using a self referencing electrode apparatus.
Proton efflux is the result of a variety of cellular properties including metabolism.

Row | Molecule | proton efflux after addition of metabolic disrupter
1 | [N-]=[N+]=[N-].[Na+] [NaN3] | decreasing efflux
2 | CC[C@H]1/C=C/C=C/C[C@@H](C)[C@H](O)[C@@](C)(O)C(=O)[C@@H](C)[C@H](O)[C@@H](C)C(=O)[C@@H](C)[C@H](O)[C@@H](C)/C=C/C(=O)O[C@@H]2[C@H](C)[C@H](CC1)O[C@]1(CC[C@H](C)[C@H](C[C@@H](C)O)O1)[C@H]2C [oligomycin] | decreasing efflux
3 | antimycin A | increasing efflux
